Test results published in patent US20100160454A1, “ANTIMICROBIAL AGENTS, COMPOSITIONS AND PRODUCTS CONTAINING THE SAME, AND METHODS OF USING THE COMPOSITIONS AND PRODUCTS” (Eastman Chemical Company, priority 2008, published 2010).

Legend:
Test in all cases: Microbiological challenge testing in BPW broth, graded subculture counts
Type in all cases: cell-based
[1] = tested on: Candida albicans Wild type; conditions: C. albicans
How it was run: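 Wild-type C. albicans grown in TSB with 1% dextrose at 22 °C, then adjusted by turbidity and hemocytometer to a 10^8 CFU/mL challenge confirmed on SABD plates. Challenge added to BPW broth containing 1% dextrose, giving 10^5 to 10^6 CFU/mL at time zero; controls in triplicate. Counts by serial dilution and spread-plating after at least 48 h incubation.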

[2] = tested on: Staphylococcus epidermidis ATCC 12228
How it was run: (§1)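 Strains grown in TSB with 1% dextrose at 35 °C for ≥96 h. Inoculum added to BPW broth with 1% dextrose, with or without test material (w/v), to 10^5–10^6 CFU/mL at time zero. Counts by spread-plating serial 1:10 dilutions in pH 7.2 phosphate buffer on PCA, incubated at 35 °C for ≥48 h.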

[3] = tested on: Pseudomonas aeruginosa Wild type; conditions: P. aeruginosa
How it was run: as §1

[4] = tested on: Aspergillus niger Wild type; conditions: A. niger
How it was run: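 Wild-type A. niger, grown in TSB with 1% dextrose at 22 °C and on SABD until sporulation, was adjusted to 1.0×10^8 spores/vegetative cells (hemocytometer). It was inoculated in triplicate into BPW with 1% dextrose to give 10^5 to 10^6 CFU/mL at time zero. Counts were by spread plate on SABD, ≥48 h at 22 °C, CFU/mL = count × dilution factor.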

SMILES: O=C([O-])CN(CCN(CC(=O)[O-])CC(=O)O)CC(=O)O.[Na+].[Na+] [EDTA, Na2EDTA]
- Grade ([1]; 0.5% (wt/vol), 3 day): 4 (1000 to 10,000 colonies countable (thus 10,000 CFU/mL to 100,000 CFU/mL))
- Grade ([1]; 0.5% (wt/vol), 14 day): 5 (More than 10,000 colonies estimated (thus more than 100,000 CFU/mL))
- Grade ([1]; 0.5% (wt/vol), 30 day): 5 (More than 10,000 colonies estimated (thus more than 100,000 CFU/mL))
- Grade ([1]; 1.25% (wt/vol), 3 day): 4 (1000 to 10,000 colonies countable (thus 10,000 CFU/mL to 100,000 CFU/mL))
- Grade ([1]; 1.25% (wt/vol), 14 day): 4 (1000 to 10,000 colonies countable (thus 10,000 CFU/mL to 100,000 CFU/mL))
- Grade ([1]; 1.25% (wt/vol), 30 day): 4 (1000 to 10,000 colonies countable (thus 10,000 CFU/mL to 100,000 CFU/mL))
- Grade ([1]; 2.5% (wt/vol), 3 day): 2 (52 to 100 colonies counted (thus 520 to 1000 CFU/mL))
- Grade ([1]; 2.5% (wt/vol), 14 day): 2 (52 to 100 colonies counted (thus 520 to 1000 CFU/mL))
- Grade ([1]; 2.5% (wt/vol), 30 day): 2 (52 to 100 colonies counted (thus 520 to 1000 CFU/mL))
- Grade ([1]; 5.0% (wt/vol), 3 day): 1 (0 to 51 colonies counted (thus 10 to 510 CFU/mL based on 0.1-mL sample))
- Grade ([1]; 5.0% (wt/vol), 14 day): 0
- Grade ([1]; 5.0% (wt/vol), 30 day): 0
- S. epidermidis growth grade, 3 day ([2]; 0.5% weight/volume): 4 (1000 to 10,000 colonies countable (thus 10,000 CFU/mL to 100,000 CFU/mL))
- S. epidermidis growth grade, 13 day ([2]; 0.5% weight/volume): 3 (100 to 1000 colonies (thus 1000 to 10,000 CFU/mL))
- S. epidermidis growth grade, 30 day ([2]; 0.5% weight/volume): 4 (1000 to 10,000 colonies countable (thus 10,000 CFU/mL to 100,000 CFU/mL))
- S. epidermidis growth grade, 3 day ([2]; 1.25% weight/volume): 2 (52 to 100 colonies counted (thus 520 to 1000 CFU/mL))
- S. epidermidis growth grade, 13 day ([2]; 1.25% weight/volume): 1 (0 to 51 colonies counted (thus 10 to 510 CFU/mL based on 0.1-mL sample))
- S. epidermidis growth grade, 30 day ([2]; 1.25% weight/volume): 0
- S. epidermidis growth grade, 3 day ([2]; 2.5% weight/volume): 0
- S. epidermidis growth grade, 13 day ([2]; 2.5% weight/volume): 0
- S. epidermidis growth grade, 30 day ([2]; 2.5% weight/volume): 0
- S. epidermidis growth grade, 3 day ([2]; 5.0% weight/volume): 0
- S. epidermidis growth grade, 13 day ([2]; 5.0% weight/volume): 0
- S. epidermidis growth grade, 30 day ([2]; 5.0% weight/volume): 0
- Grade ([3]; 0.5% (wt/vol), 3 day): 4 (1000 to 10,000 colonies countable (thus 10,000 CFU/mL to 100,000 CFU/mL))
- Grade ([3]; 0.5% (wt/vol), 13 day): 4 (1000 to 10,000 colonies countable (thus 10,000 CFU/mL to 100,000 CFU/mL))
- Grade ([3]; 0.5% (wt/vol), 30 day): 4 (1000 to 10,000 colonies countable (thus 10,000 CFU/mL to 100,000 CFU/mL))
- Grade ([3]; 1.25% (wt/vol), 3 day): 4 (1000 to 10,000 colonies countable (thus 10,000 CFU/mL to 100,000 CFU/mL))
- Grade ([3]; 1.25% (wt/vol), 13 day): 4 (1000 to 10,000 colonies countable (thus 10,000 CFU/mL to 100,000 CFU/mL))
- Grade ([3]; 1.25% (wt/vol), 30 day): 4 (1000 to 10,000 colonies countable (thus 10,000 CFU/mL to 100,000 CFU/mL))
- Grade ([3]; 2.5% (wt/vol), 3 day): 4 (1000 to 10,000 colonies countable (thus 10,000 CFU/mL to 100,000 CFU/mL))
- Grade ([3]; 2.5% (wt/vol), 13 day): 3 (100 to 1000 colonies (thus 1000 to 10,000 CFU/mL))
- Grade ([3]; 2.5% (wt/vol), 30 day): 4 (1000 to 10,000 colonies countable (thus 10,000 CFU/mL to 100,000 CFU/mL))
- Grade ([3]; 5.0% (wt/vol), 3 day): 0
- Grade ([3]; 5.0% (wt/vol), 13 day): 0
- Grade ([3]; 5.0% (wt/vol), 30 day): 0
- Grade ([4]; 0.5% (wt/vol), 3 day): 4
- Grade ([4]; 0.5% (wt/vol), 13 day): 4
- Grade ([4]; 0.5% (wt/vol), 30 day): 4
- Grade ([4]; 1.25% (wt/vol), 3 day): 2 (Countable (10 to 100 colonies))
- Grade ([4]; 1.25% (wt/vol), 13 day): 1 (Countable (1 to 10 colonies))
- Grade ([4]; 1.25% (wt/vol), 30 day): 3
- Grade ([4]; 2.5% (wt/vol), 3 day): 0
- Grade ([4]; 2.5% (wt/vol), 13 day): 0
- Grade ([4]; 2.5% (wt/vol), 30 day): 0
- Grade ([4]; 5.0% (wt/vol), 3 day): 0
- Grade ([4]; 5.0% (wt/vol), 13 day): 0
- Grade ([4]; 5.0% (wt/vol), 30 day): 0

SMILES: CC(O)CO (stereo not drawn) [PG, propylene glycol]
- Grade ([1]; 0.5% (wt/vol), 3 day): 5 (More than 10,000 colonies estimated (thus more than 100,000 CFU/mL))
- Grade ([1]; 0.5% (wt/vol), 14 day): 5 (More than 10,000 colonies estimated (thus more than 100,000 CFU/mL))
- Grade ([1]; 0.5% (wt/vol), 30 day): 5 (More than 10,000 colonies estimated (thus more than 100,000 CFU/mL))
- Grade ([1]; 1.25% (wt/vol), 3 day): 5 (More than 10,000 colonies estimated (thus more than 100,000 CFU/mL))
- Grade ([1]; 1.25% (wt/vol), 14 day): 5 (More than 10,000 colonies estimated (thus more than 100,000 CFU/mL))
- Grade ([1]; 1.25% (wt/vol), 30 day): 5 (More than 10,000 colonies estimated (thus more than 100,000 CFU/mL))
- Grade ([1]; 2.5% (wt/vol), 3 day): 4 (1000 to 10,000 colonies countable (thus 10,000 CFU/mL to 100,000 CFU/mL))
- Grade ([1]; 2.5% (wt/vol), 14 day): 4 (1000 to 10,000 colonies countable (thus 10,000 CFU/mL to 100,000 CFU/mL))
- Grade ([1]; 2.5% (wt/vol), 30 day): 4 (1000 to 10,000 colonies countable (thus 10,000 CFU/mL to 100,000 CFU/mL))
- Grade ([1]; 5.0% (wt/vol), 3 day): 3 (100 to 1000 colonies (thus 1000 to 10,000 CFU/mL))
- Grade ([1]; 5.0% (wt/vol), 14 day): 4 (1000 to 10,000 colonies countable (thus 10,000 CFU/mL to 100,000 CFU/mL))
- Grade ([1]; 5.0% (wt/vol), 30 day): 4 (1000 to 10,000 colonies countable (thus 10,000 CFU/mL to 100,000 CFU/mL))
- S. epidermidis growth grade, 3 day ([2]; 0.5% weight/volume): 5 (More than 10,000 colonies estimated (thus more than 100,000 CFU/mL))
- S. epidermidis growth grade, 13 day ([2]; 0.5% weight/volume): 5 (More than 10,000 colonies estimated (thus more than 100,000 CFU/mL))
- S. epidermidis growth grade, 30 day ([2]; 0.5% weight/volume): 5 (More than 10,000 colonies estimated (thus more than 100,000 CFU/mL))
- S. epidermidis growth grade, 3 day ([2]; 1.25% weight/volume): 4 (1000 to 10,000 colonies countable (thus 10,000 CFU/mL to 100,000 CFU/mL))
- S. epidermidis growth grade, 13 day ([2]; 1.25% weight/volume): 4 (1000 to 10,000 colonies countable (thus 10,000 CFU/mL to 100,000 CFU/mL))
- S. epidermidis growth grade, 30 day ([2]; 1.25% weight/volume): 4 (1000 to 10,000 colonies countable (thus 10,000 CFU/mL to 100,000 CFU/mL))
- S. epidermidis growth grade, 3 day ([2]; 2.5% weight/volume): 4 (1000 to 10,000 colonies countable (thus 10,000 CFU/mL to 100,000 CFU/mL))
- S. epidermidis growth grade, 13 day ([2]; 2.5% weight/volume): 4 (1000 to 10,000 colonies countable (thus 10,000 CFU/mL to 100,000 CFU/mL))
- S. epidermidis growth grade, 30 day ([2]; 2.5% weight/volume): 4 (1000 to 10,000 colonies countable (thus 10,000 CFU/mL to 100,000 CFU/mL))
- S. epidermidis growth grade, 3 day ([2]; 5.0% weight/volume): 4 (1000 to 10,000 colonies countable (thus 10,000 CFU/mL to 100,000 CFU/mL))
- S. epidermidis growth grade, 13 day ([2]; 5.0% weight/volume): 4 (1000 to 10,000 colonies countable (thus 10,000 CFU/mL to 100,000 CFU/mL))
- S. epidermidis growth grade, 30 day ([2]; 5.0% weight/volume): 4 (1000 to 10,000 colonies countable (thus 10,000 CFU/mL to 100,000 CFU/mL))
- Grade ([3]; 0.5% (wt/vol), 3 day): 4 (1000 to 10,000 colonies countable (thus 10,000 CFU/mL to 100,000 CFU/mL))
- Grade ([3]; 0.5% (wt/vol), 13 day): 4 (1000 to 10,000 colonies countable (thus 10,000 CFU/mL to 100,000 CFU/mL))
- Grade ([3]; 0.5% (wt/vol), 30 day): 5 (More than 10,000 colonies estimated (thus more than 100,000 CFU/mL))
- Grade ([3]; 1.25% (wt/vol), 3 day): 4 (1000 to 10,000 colonies countable (thus 10,000 CFU/mL to 100,000 CFU/mL))
- Grade ([3]; 1.25% (wt/vol), 13 day): 4 (1000 to 10,000 colonies countable (thus 10,000 CFU/mL to 100,000 CFU/mL))
- Grade ([3]; 1.25% (wt/vol), 30 day): 4 (1000 to 10,000 colonies countable (thus 10,000 CFU/mL to 100,000 CFU/mL))
- Grade ([3]; 2.5% (wt/vol), 3 day): 4 (1000 to 10,000 colonies countable (thus 10,000 CFU/mL to 100,000 CFU/mL))
- Grade ([3]; 2.5% (wt/vol), 13 day): 4 (1000 to 10,000 colonies countable (thus 10,000 CFU/mL to 100,000 CFU/mL))
- Grade ([3]; 2.5% (wt/vol), 30 day): 4 (1000 to 10,000 colonies countable (thus 10,000 CFU/mL to 100,000 CFU/mL))
- Grade ([3]; 5.0% (wt/vol), 3 day): 4 (1000 to 10,000 colonies countable (thus 10,000 CFU/mL to 100,000 CFU/mL))
- Grade ([3]; 5.0% (wt/vol), 13 day): 4 (1000 to 10,000 colonies countable (thus 10,000 CFU/mL to 100,000 CFU/mL))
- Grade ([3]; 5.0% (wt/vol), 30 day): 4 (1000 to 10,000 colonies countable (thus 10,000 CFU/mL to 100,000 CFU/mL))
- Grade ([4]; 0.5% (wt/vol), 3 day): 5
- Grade ([4]; 0.5% (wt/vol), 13 day): 5
- Grade ([4]; 0.5% (wt/vol), 30 day): 5
- Grade ([4]; 1.25% (wt/vol), 3 day): 5
- Grade ([4]; 1.25% (wt/vol), 13 day): 5
- Grade ([4]; 1.25% (wt/vol), 30 day): 5
- Grade ([4]; 2.5% (wt/vol), 3 day): 4
- Grade ([4]; 2.5% (wt/vol), 13 day): 5
- Grade ([4]; 2.5% (wt/vol), 30 day): 5
- Grade ([4]; 5.0% (wt/vol), 3 day): 4
- Grade ([4]; 5.0% (wt/vol), 13 day): 4
- Grade ([4]; 5.0% (wt/vol), 30 day): 4
